Measured values: patent US6316190A (The United States of America as represented by the …)

Experiments:
[1] = test system: recombinant HIV-1 NC protein; assay: Surface plasmon resonance (BIAcore) binding of NC to immobilized biotinylated oligonucleotides; conditions: for NC binding to oligonucleotide (level and stability during washout): oligonucleotide on chip, 0.15M NaCl; for affinity for HIV-1 NC protein: oligonucleotides including the subsequence
Procedure: In a preferred embodiment, the assay format is surface plasmon resonance (SPR). The Kd and kinetics of the trial compound-protein interaction are determined in a BIAcore, a biosensor based on surface plasmon resonance. For this technique, protein or trial compound is coupled to a derivatized sensor chip capable of detecting changes in mass. When trial compound or protein is passed over the sensor chip, it binds to the trial compound or protein coupled to the chip, resulting in an increase in mass which is quantifiable. Measurement of the rate of association as a function of trial compound or protein concentration can be used to calculate the association rate constant (kon). After the association phase, buffer is passed over the chip and the rate of dissociation (koff) is determined. Kon is typically measured in the range 1.0×10^2 to 5.0×10^6 and koff in the range 1.0×10^-1 to 1.0×10^-6. The equilibrium constant Kd is often calculated as koff/kon and thus is typically measured in the range 10^-5 to 10^-12. Affinities measured in this manner correlate well with affinities measured in solution by fluorescence quench titration. See, Fisher and Fivash (1994) Curr. Opin. Biotechnol. 5:389-395; Fisher et al. (1994) Methods 6:389-395; Johnsson et al., (1991) Anal. Biochem., 198:268-277; Karlsson et al., (1991) J. Immunol. Methods., 145:229-240; and Johnsson et al., (1991) Anal. Biochem. 198:268-277.
NC has traditionally been described as a single-stranded nucleic acid-binding protein. To determine whether this conclusion is accurate under SPR conditions, we initially measured binding of recombinant HIV-1 NC to a single-stranded 28-base oligodeoxynucleotide. The sequence of this oligonucleotide contains 20 bases from the 3' end of HIV-1 proviral DNA (i.e., the 3' end of U5). Surface plasmon resonance (SPR) analysis was performed with biotinylated DNA immobilized at its 3' end.
This possibility was analyzed systematically in the following experiment. Four SPR chips were made containing TGTG (SEQ ID NO:3) at different densities. For each chip, the amount of streptavidin (which holds the biotinylated oligonucleotide on the chip) was measured by SPR analysis before the addition of TGTG (SEQ ID NO:3). The amount of TGTG (SEQ ID NO:3) added to each chip was then quantitated by SPR. Thus, for each chip the ratio of TGTG (SEQ ID NO:3) to streptavidin was empirically determined. Since a streptavidin molecule has four binding sites for biotinylated ligands, the number of streptavidin molecules occupied by 0, 1, 2, 3, or 4 oligonucleotides could be calculated from this ratio, using binomial expansion. Finally, the ability of each chip to bind NC with high affinity was determined by SPR.
Another important aspect of the experiments described here is that the analyses were performed in 0.15M NaCl. The sequence-independent electrostatic interaction between the positively charged NC protein and nucleic acids is obviously much lower at this moderate ionic strength than in more dilute buffers, so that the differences in affinity for different oligonucleotides are more apparent. […] The additional affinity of NC for a preferred sequence was shown by this analysis to be largely hydrophobic.

[2] = test system: HIV-1 NC protein; assay: Tryptophan fluorescence titration of NC with oligonucleotide, then NaCl dissociation; type: binding; conditions: for apparent affinity of NC: fluorescence; for hydrophobic component, apparent affinity constant at 1M NaCl (K°) / K° relative to expected value (weighted average of corresponding homopolymers): 1M NaCl
[3] = test system: "finger swap" mutants of NC (1.1, 2.2, 2.1); assay: SPR binding of "finger swap" mutant NC proteins to the 5' site; parameters: species or system HIV-1
[4] = test system: 2.2 finger swap mutant protein; assay: Fluorescence binding of 2.2 finger swap mutant protein; parameters: species or system HIV-1; conditions: versus wild-type protein
[5] = test system: synthetic peptide with a HIV-1 CCHC zinc finger; conditions: cited from earlier work
[6] = test system: HIV-1; conditions: cited from earlier work
[7] = molecular target: T1, HIV-1 nucleocapsid protein (NC), wild type (Human immunodeficiency virus 1, UniProt P12493 P12493:378-432); assay: SPR; 0.15 M NaCl; tight binding mode (slow washout); conditions: label: biotin (SPR)
[8] = molecular target: T1, HIV-1 nucleocapsid protein (NC), wild …; assay: SPR; 0.15 M NaCl; second independent mode (fast-released fraction); conditions: label: biotin (SPR)
[9] = molecular target: T1, HIV-1 nucleocapsid protein (NC), wild …; assay: SPR; TGTG sufficient for high-affinity binding in A context; conditions: label: biotin
[10] = molecular target: T1, HIV-1 nucleocapsid protein (NC), wild …; assay: SPR; conditions: label: 3'-biotin
[11] = molecular target: T1, HIV-1 nucleocapsid protein (NC), wild …; assay: SPR; higher level and slower washout than site I DNA
[12] = molecular target: T1, HIV-1 nucleocapsid protein (NC), wild …; assay: SPR; TGTG replaced by AAAA; no high-affinity binding; conditions: label: biotin
[13] = molecular target: T1, HIV-1 nucleocapsid protein (NC), wild …; assay: SPR; negligible binding; conditions: label: biotin
[14] = molecular target: T1, HIV-1 nucleocapsid protein (NC), wild …; assay: SPR; 0.15 M NaCl; most stable of three subsites; relatively high affinity also by fluorescence; conditions: label: biotin
[15] = molecular target: T1, HIV-1 nucleocapsid protein (NC), wild …; assay: SPR; four NC per oligo; conditions: label: biotin
[16] = molecular target: T1, HIV-1 nucleocapsid protein (NC), wild …; assay: SPR; two NC per oligo; conditions: label: biotin
[17] = quantitative analysis of SPR data

Molecule: GACUUGUGG (chemistry not given here)
- NC binding to oligonucleotide (level and stability during washout) ([1]; SPR): at a higher level and washes out more slowly than the binding to the DNA
- affinity for HIV-1 NC protein [1]: nanomolar range

Molecule: GACTTGTGG [Site I]
- dependence of binding on oligonucleotide density ([1]; SPR): essentially independent
- NC binding to oligonucleotide (level and stability during washout) ([1]; SPR): most stable binding
- apparent affinity of NC [2]: relatively high affinity
- binding of mutant proteins [3]: some binding
- washout of mutant proteins ([3]; versus wild-type protein): washed out considerably faster than the wild-type protein
- apparent affinity of 2.2 mutant [4]: lower apparent affinity than that of wild-type protein

Molecule: TGTGT
- number of NC molecules bound per oligonucleotide ([1]; SPR): single
- NC binding to oligonucleotide (level and stability during washout) ([1]; SPR): high-affinity binding sites

Molecule: (dT)9
- hydrophobic component, apparent affinity constant at 1M NaCl (K°) [2]: 5×10^1

Molecule: AAAATGTGAA
- NC binding to oligonucleotide (level and stability during washout) ([1]; SPR): binding

Molecule: d(GA)4
- K° relative to expected value (weighted average of corresponding homopolymers) [2]: coincided with the value that would be predicted

Molecule: (TG)5
- number of NC molecules bound per oligonucleotide ([1]; SPR): two

Molecule: AAAATCTCTA [site II]
- NC binding to oligonucleotide (level and stability during washout) ([1]; SPR): negligible binding

Molecule: TGTGTG
- affinity for HIV-1 NC protein [1]: nanomolar range

Molecule: TGTG (DNA, backbone not given here)
- high-affinity binding of NC ([1]; highest oligonucleotide density on chip (FIG. 6D)): high-affinity binding is achieved
- initial binding of NC ([1]; oligonucleotide at low density (FIG. 6A)): substantial degree of initial binding

Molecule: TGTGTGTG [d(TG)4]
- dependence of binding on oligonucleotide density ([1]; SPR): essentially independent
- number of NC molecules bound per oligonucleotide ([1]; SPR): one
- Ka, binding system released more rapidly during washout [1, 17]: 1×10^7
- Ka, binding system responsible for slow washout [1, 17]: 2e+09 M⁻¹
- K° relative to expected value (weighted average of corresponding homopolymers) [2]: 145 times
- hydrophobic component, apparent affinity constant at 1M NaCl (K°) [2]: 2.3×10^4
- difference in binding energy ([2]; d(TG)4 versus d(IT)4, inferred from difference in affinity): ~ 1 kcal/mole
- apparent affinity of NC [2]: highest affinity

Molecule: GCAGTGCAT [site III]
- NC binding to oligonucleotide (level and stability during washout) ([1]; SPR): significant binding, but at a lower level and a more rapid loss during the washout than was observed with site I

Molecule: d(G)9
- extent of binding and retention of NC during washout relative to site 1 ([1]; SPR): far lower than seen with site 1 sequences
- NC binding to oligonucleotide (level and stability during washout) ([1]; SPR): clear preference
- apparent affinity of NC [2]: higher than that for the other hompolymeric oligodeoxynucleotides

Molecule: GACTTGTGGA
- affinity for HIV-1 NC protein [1]: nanomolar range

Molecule: NC(=O)c1cccc(N=O)c1 [NOBA, 3-nitroso benzamide]
- effect on zinc of zinc finger peptide [5]: loss of zinc
- effect on virus [6]: viral inactivation

Molecule: GTGTG
- number of NC molecules bound per oligonucleotide ([1]; SPR): single
- NC binding to oligonucleotide (level and stability during washout) ([1]; SPR): high-affinity binding sites

Molecule: d(T)10
- NC binding to oligonucleotide (level and stability during washout) ([1]; SPR): detectable binding

Molecule: d(IT)4
- K° relative to expected value (weighted average of corresponding homopolymers) [2]: 10 times

Molecule: (TG)10
- number of NC molecules bound per oligonucleotide ([1]; SPR): four

Molecule: TGTGTGTG (ssDNA) [d(TG)4]
- Ka [7]: 2e+09 M⁻¹
- Ka [8]: 1e+07 M⁻¹

Molecule: AAAATGTGAA (ssDNA)
- binding result [9]: binds

Molecule: GACTTGTGGAAAATCTCTAGCAGTGCAT (ssDNA) [28-mer ss oligodeoxynucleotide (HIV-1 U5 3' end)]
- binding result [10]: binds

Molecule: GACUUGUGG (ssRNA) [site I RNA]
- binding result [11]: binds

Molecule: GACTAAAAGA (ssDNA)
- binding result [12]: no binding

Molecule: AAAATCTCTA (ssDNA) [site II]
- binding result [13]: no binding

Molecule: GACTTGTGG (ssDNA) [site I]
- binding result [14]: binds

Molecule: TGTGTGTGTGTGTGTGTGTG (ssDNA) [(TG)10]
- binding result [15]: binds

Molecule: TGTGTGTGTG (ssDNA) [(TG)5]
- binding result [16]: binds
